Data on 33 compounds can be found in US10196363B2, “Dihydropyrimidin-2-one compounds and medical use thereof” (JAPAN TOBACCO INC., priority 2014, dated 2019).

A value given as a limit tells only on which side of the number the result lay.

Assay [1] deals with T1, mouse RORγ (Mus musculus, UniProt P51450).
T1 construct: mouse RORγ, from Ile251 to Lys516; expressed in transfected cells; host or cells: CHO cells (Chinese hamster ovary), transient co-transfection with pG5-Luc
T1 sequence (P51450 251-516): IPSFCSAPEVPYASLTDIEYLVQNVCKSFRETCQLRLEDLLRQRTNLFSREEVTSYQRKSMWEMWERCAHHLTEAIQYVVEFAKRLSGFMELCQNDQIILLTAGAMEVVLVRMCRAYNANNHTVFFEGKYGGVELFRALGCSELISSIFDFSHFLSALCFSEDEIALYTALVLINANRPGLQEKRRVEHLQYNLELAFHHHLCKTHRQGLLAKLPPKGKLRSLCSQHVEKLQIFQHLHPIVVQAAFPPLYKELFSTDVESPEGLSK
Briefly: In vitro assay of inhibitory effect against RORγ transcriptional activity (GAL4-mRORγ LBD luciferase reporter gene assay in CHO cells). The following applies: for EC50: GAL4-mRORγ LBD luciferase reporter, CHO cells, read-out: LUC EC50 mRORγ; for mRORγ luciferase activity, %-of-control: value in parentheses beside the EC50 bound, vehicle-control 0.2% DMSO alone = 100%. It is filed as cell-based. The essentials: (§1)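 Luciferase output, normalised to 0.2% DMSO vehicle (100%), served as the measure of RORγ transcriptional activity. The reporter was driven by GAL4-fused ligand-binding domains of human (residues 253–518) or mouse (251–516) RORγ in transiently transfected CHO cells. Cells received eight-point compound dilutions for 2 days, EC50 values were fitted, and cytotoxic points were dropped.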
(Reporter assays use an easily measured gene product as a stand-in for the process of interest.)

For assay [2], the target named is T2, human RORγ (Homo sapiens, UniProt P51449).
T2 construct: human RORγ, from Ser253 to Lys518; expressed in transfected cells; host or cells: CHO cells (Chinese hamster ovary), transient co-transfection with pG5-Luc
T2 sequence (P51449 253-518): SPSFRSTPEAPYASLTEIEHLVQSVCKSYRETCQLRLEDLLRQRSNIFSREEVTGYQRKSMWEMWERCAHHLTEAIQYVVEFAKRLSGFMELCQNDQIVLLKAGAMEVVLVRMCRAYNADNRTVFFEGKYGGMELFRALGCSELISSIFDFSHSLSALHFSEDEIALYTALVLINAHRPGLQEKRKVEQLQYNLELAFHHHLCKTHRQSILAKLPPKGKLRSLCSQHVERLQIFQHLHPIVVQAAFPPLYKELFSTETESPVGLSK
Briefly: In vitro assay of inhibitory effect against RORγ transcriptional activity (GAL4-hRORγ LBD luciferase reporter gene assay in CHO cells). It is filed as cell-based. To be noted: for EC50: GAL4-hRORγ LBD luciferase reporter, CHO cells, read-out: LUC EC50 hRORγ; for hRORγ luciferase activity, %-of-control: value in parentheses beside the EC50 bound, vehicle-control 0.2% DMSO alone = 100%. The gist of the method:
as §1

In general, EC50 refers to the concentration giving half of the maximal effect. In the case of `COc1cc([C@]2(C)NC(=O)N(CCC(=O)O)C=C2C(C)C)ccc1CCC(C)(C)C` [Example 213], the EC50 in assay [1] is 56 nM; in assay [2], 131 nM.

In the case of `CC(C)CSc1ccc([C@]2(C)NC(=O)N(CCC(=O)O)C=C2C(C)C)cc1Cl` [Example 214], the EC50 in assay [1] is 100 nM; in assay [2], 169 nM.

Take `CC(C)CCS(=O)(=O)c1ccc([C@]2(C)NC(=O)N(CCC(=O)O)C=C2C(C)C)cc1Cl` [Example 216]: in assay [1], the EC50 was above 20000 nM and the “mRORγ luciferase activity, %-of-control” value is on record as “(76%)”. Moreover, in assay [2], the EC50 was above 20000 nM and the “hRORγ luciferase activity, %-of-control” value is given as “(86%)”.

As for `CC(C)CCSc1ccc([C@]2(C)NC(=O)N(CCC(=O)O)C=C2C(C)C)cc1Cl` [Example 218], the results for the EC50 in assay [1] and in assay [2] were 122 nM and 376 nM, respectively.

As for `CC(C)CS(=O)(=O)c1ccc([C@]2(C)NC(=O)N(CCC(=O)O)C=C2C(C)C)cc1Cl` [Example 219], in assay [1], the EC50 is above 20000 nM and the “mRORγ luciferase activity, %-of-control” value is listed as “(86%)”. For the same compound, in assay [2], the EC50 was above 20000 nM and the “hRORγ luciferase activity, %-of-control” value was “(88%)”.

In the case of `Cc1cc(C(=O)O)ccc1N1C=C(C(C)C)[C@](C)(c2ccc(CCC(C)(C)C)c(Cl)c2)NC1=O` [Example 220], the EC50 in assay [1] worked out at 29 nM; in assay [2], 22 nM.

On to `COc1cc(C(=O)O)ccc1N1C=C(C(C)C)[C@](C)(c2ccc(CCC(C)(C)C)c(Cl)c2)NC1=O` [Example 221], for which the EC50 was 24 nM in assay [1] and 25 nM in assay [2].

Turning to `CC(C)C1=CN(CCC(=O)O)C(=O)N[C@@]1(C)c1ccc(SC2CCCC2)c(Cl)c1` [Example 224], the EC50 was found to be 123 nM in assay [1] and 343 nM in assay [2].

Turning to `COCCN1C=C(c2ccc(C(=O)O)cc2)[C@](C)(c2ccc(CCC(C)(C)C)c(Cl)c2)NC1=O` [Example 225], the results for the EC50 in assay [1] and in assay [2] were 72 nM and 101 nM, respectively.

`COc1cc(N2C=C(C(C)C)[C@](C)(c3ccc(CCC(C)(C)C)c(Cl)c3)NC2=O)ccc1C(=O)O` [Example 226, 4-{(S)-4-[3-Chloro-4-(3,3-dimethyl-butyl)-phenyl]-5-isopropyl-4-methyl-2-oxo-3,4-dihydro-2H-pyrimidin-1-yl}-2-methoxy-benzoic Acid]: the EC50 in assay [1] was determined as 20 nM; in assay [2], 17 nM.

For the compound `CC(C)C1=CN(CCC(=O)O)C(=O)N[C@@]1(C)c1ccc(S(=O)(=O)C2CCCC2)c(Cl)c1` [Example 227], in assay [1], the EC50 is above 20000 nM and the “mRORγ luciferase activity, %-of-control” value is listed as “(87%)”. In addition, in assay [2], the EC50 was above 20000 nM and the “hRORγ luciferase activity, %-of-control” value is recorded as “(89%)”.

In the case of `CC(C)C1=CN(C2(CC(=O)O)CC2)C(=O)N[C@@]1(C)c1ccc(CCC(C)(C)C)c(Cl)c1` [Example 228], the EC50 in assay [1] and in assay [2] was 32 nM in each case.

For the compound `CC(C)(C)CCc1ccc([C@]2(C)NC(=O)N(C3CC(F)(F)C3)C=C2[C@H]2C[C@@H](C(=O)O)C2)cc1Cl` [Example 229], the EC50 in assay [1] turned out to be 18 nM; in assay [2], 9 nM.

As to `CC(C)N1C=C(CCC(=O)O)[C@](C)(c2ccc(CCC(C)(C)C)c(Cl)c2)NC1=O` [Example 230], the values for the EC50 in assay [1] and in assay [2] were 76 nM and 225 nM, respectively.

Turning to `CC(C)(C)CCc1ccc([C@]2(C)NC(=O)N(c3ccncc3)C=C2CCC(=O)O)cc1Cl` [Example 231], the EC50 in assay [1] came out at 458 nM; in assay [2], 692 nM.

Take `CC(C)C1=CN([C@@H]2CCC[C@@H]2C(=O)O)C(=O)N[C@@]1(C)c1ccc(CCC(C)(C)C)c(Cl)c1` [Example 234]: the EC50 in assay [1] turned out to be 534 nM; in assay [2], 964 nM.

With `CC(C)C1=CN([C@@H]2CCCC[C@H]2C(=O)O)C(=O)N[C@@]1(C)c1ccc(CCC(C)(C)C)c(Cl)c1` [Example 235], the EC50 in assay [1] is 1610 nM. For the same compound, in assay [2], the EC50 was above 3200 nM and the “hRORγ luciferase activity, %-of-control” value is on record as “(70%)”.

`CC(C)C1=CN([C@H](C)CC(=O)O)C(=O)N[C@@]1(C)c1ccc(CCC(C)(C)C)c(Cl)c1` [Example 236]: the values for the EC50 in assay [1] and in assay [2] were 15 nM and 20 nM, respectively.

Regarding `CC(C)(C)CCc1ccc([C@]2(C)NC(=O)N(CCC(=O)O)C=C2[C@H]2C[C@@H](CO)C2)cc1Cl` [Example 241], the results for the EC50 in assay [1] and in assay [2] were 247 nM and 112 nM, respectively.

For `CC(C)(C)CCc1ccc([C@]2(C)NC(=O)N(C3CCC(F)(F)CC3)C=C2[C@H]2C[C@@H](C(=O)O)C2)cc1Cl` [Example 246], the EC50 was determined as 22 nM in assay [1] and 10 nM in assay [2].

As to `CC(C)C1=CN([C@@H](C)CC(=O)O)C(=O)N[C@@]1(C)c1ccc(CCC(C)(C)C)c(Cl)c1` [Example 247], the EC50 in assay [1] is 16 nM; in assay [2], 18 nM.

In the case of `CC(C)(C)CCc1ccc([C@]2(C)NC(=O)N(CC3CC(F)(F)C3)C=C2[C@H]2C[C@@H](C(=O)O)C2)cc1Cl` [Example 248], the EC50 in assay [1] is 21 nM; in assay [2], 10 nM.

With `CC(C)(C)CCc1ccc([C@]2(C)NC(=O)N(CCC(N)=O)C=C2[C@H]2C[C@@H](C(=O)O)C2)cc1Cl` [Example 249], the EC50 in assay [1] was found to be 779 nM; in assay [2], 412 nM.

Turning to `COCC1(N2C=C([C@H]3C[C@@H](C(=O)O)C3)[C@](C)(c3ccc(CCC(C)(C)C)c(Cl)c3)NC2=O)CC1` [Example 250], the EC50 in assay [1] amounted to 114 nM; in assay [2], 42 nM.

As for `CC(C)(C)CCc1ccc([C@]2(C)NC(=O)N(C3CC(C)(C)C3)C=C2[C@H]2C[C@@H](C(=O)O)C2)cc1Cl` [Example 251], the results for the EC50 in assay [1] and in assay [2] were 28 nM and 13 nM, respectively.

In the case of `CC(C)(C)CCc1ccc([C@]2(C)NC(=O)N(c3ccc(C(=O)O)cc3)C=C2C2CC(F)(F)C2)cc1Cl` [Example 252], the EC50 in assay [1] amounted to 28 nM; in assay [2], 20 nM.

With `CC(C)C1=CN(CCC(=O)O)C(=O)N[C@@]1(C)c1ccc(CCC(C)(C)C)cc1` [Example 253], the EC50 is 34 nM in assay [1] and 75 nM in assay [2].

On to `CC(C)C1=CN(CCC(=O)O)C(=O)N[C@@]1(C)c1ccc([C@H]2C[C@@H](C(C)C)C2)c(Cl)c1` [Example 258, 3-{(S)-4-[3-Chloro-4-(3-isopropyl-cyclobutyl)-phenyl]-5-isopropyl-4-methyl-2-oxo-3,4-dihydro-2H-pyrimidin-1-yl}-propionic Acid], for which the figures for the EC50 in assay [1] and in assay [2] were 16 nM and 22 nM, respectively.

Turning to `CC(C)C1=CN(C(C)(C)CC(=O)O)C(=O)N[C@@]1(C)c1ccc(CCC(C)(C)C)c(Cl)c1` [Example 259], the concentration for a half-maximal effect (EC50) in assay [1] came out at 43 nM; in assay [2], 57 nM.

For the compound `CC(C)C1=CN(CCC(=O)O)C(=O)N[C@@]1(C)c1ccc(CCC(C)(C)CO)c(Cl)c1` [Example 260], the results for the EC50 in assay [1] and in assay [2] were 492 nM and 439 nM, respectively.

Consider `CC(C)C1=CN(CCC(=O)O)C(=O)N[C@@]1(C)c1ccc(CCC(C)(C)C(=O)O)c(Cl)c1` [Example 261], for which, in assay [1], the EC50 is above 20000 nM and the “mRORγ luciferase activity, %-of-control” value is listed as “(100%)”. In assay [2], the EC50 was above 20000 nM and the “hRORγ luciferase activity, %-of-control” value is recorded as “(90%)”.

Turning to `CC(C)C1=CN([C@H]2CC[C@H](CC(=O)O)CC2)C(=O)N[C@@]1(C)c1ccc(CCC(C)(C)C)c(Cl)c1` [Example 262], the EC50 in assay [1] and in assay [2] was 22 nM throughout.

On to `CC(C)C1=CN(CCC(=O)O)C(=O)N[C@@]1(C)c1ccc(CC2CCCC2)c(Cl)c1` [Example 263], for which the EC50 was 18 nM in assay [1] and 26 nM in assay [2].
